Experimental findings from ChEMBL document CHEMBL4482307 (2014) are described below.

The source made the active and inactive calls. No cut-off for these calls is given here. Some results are limits rather than exact numbers.

Data set [1] relates to HL-60. Nature of the data set: Antiproliferative activity against human HL60 cells assessed as reduction in cell proliferation incubated for 3 to 4 days by MTT assay. The format is functional, cell-based.
For a further data set, the system named is Daudi. Nature of the data set: Antiproliferative activity against human Daudi cells assessed as reduction in cell proliferation incubated for 3 to 4 days by MTT assay. The format is functional, cell-based. (Tetrazolium dyes change colour on reduction, which living cells bring about.)
Data set [2] addresses T1, c-Myc/Max (Homo sapiens) (UniProt P01106+P61244). Nature of the data set: Inhibition of His6-tagged homogeneously purified recombinant Myc bHLH-LZ domain (unknown origin)/His6-tagged Max (151 residues) (unknown origin) interaction assessed as reduction in Myc/Max/DNA ternary complex formation using fluorescently-tagged (FAM) E-Box-containing double-stranded oligonucleotide at 100 uM by EMSA relative to control. The format is protein-complex assay. On the technique in general: In EMSA bound probe runs differently from free probe, usually more slowly.

Data set [3] has as its target T1, c-Myc/Max (Homo sapiens). Nature of the data set: Inhibition of Myc/Max protein interaction in human HL60 cells assessed as reduction in Myc/Max heterodimer formation at 1 to 12 uM by co-immunoprecipitation assay. It counts as cell-based.
The target in the next data set is c-Myc/Max (Homo sapiens, UniProt P01106). Nature of the data set: Inhibition of His6-tagged homogeneously purified recombinant Myc bHLH-LZ domain (unknown origin)/His6-tagged Max (151 residues) (unknown origin) interaction assessed as reduction in Myc/Max/DNA ternary complex formation using fluorescently-tagged (FAM) E-Box-containing double-stranded oligonucleotide by EMSA relative to control. The format is protein-complex assay.

The test system of data set [4] is HL-60. Nature of the data set: Induction of cell cycle arrest in human HL60 cells assessed as accumulation at G0/G1 phase incubated for 24 to 48 hrs by propidium iodide staining based flow cytometric analysis. It counts as functional. In general terms: Flow cytometry measures light scatter and fluorescence of single cells or particles in a stream.
Data set [5] relates to HL-60. Nature of the data set: Induction of cell cycle arrest in human HL60 cells assessed as accumulation at G0/G1 phase at 5 uM incubated for 24 to 48 hrs by propidium iodide staining based flow cytometric analysis (reference value: 36%). It counts as functional.
In data set [6] the test system is HL-60. Nature of the data set: Induction of cell cycle arrest in human HL60 cells assessed as accumulation at G2/M phase at 5 uM incubated for 24 to 48 hrs by propidium iodide staining based flow cytometric analysis (reference value: 14%). It counts as functional.
In data set [7] the test system is HL-60. Nature of the data set: Induction of cell cycle arrest in human HL60 cells assessed as accumulation at S phase at 5 uM incubated for 24 to 48 hrs by propidium iodide staining based flow cytometric analysis (reference value: 50%). The format is functional.
For data set [8], the system named is HL-60. Nature of the data set: Induction of cell cycle arrest in human HL60 cells assessed as accumulation at G0/G1 phase at 10 uM incubated for 24 to 48 hrs by propidium iodide staining based flow cytometric analysis (reference value: 36%). The format is functional.
The subject of data set [9] is HL-60. Nature of the data set: Induction of cell cycle arrest in human HL60 cells assessed as accumulation at G2/M phase at 10 uM incubated for 24 to 48 hrs by propidium iodide staining based flow cytometric analysis (reference value: 14%). It counts as functional.
Data set [10] concerns HL-60. Nature of the data set: Induction of cell cycle arrest in human HL60 cells assessed as accumulation at S phase at 10 uM incubated for 24 to 48 hrs by propidium iodide staining based flow cytometric analysis (reference value: 50%). The format is functional.
The target of data set [11] is Myc proto-oncogene protein (Homo sapiens) (UniProt P01106). Nature of the data set: Inhibition of Myc in human HL60 cells co-transfected with Myc-responsive E-box elements assessed as reduction c-Myc promoter-mediated luciferase expression at 10 to 50 uM after 6 hrs. The format is cell-based.
Data set [12] can be described thus: Half life in plasma (unknown origin). It counts as ADME, cell-free.

For the molecule `CC(C)OC(=O)c1ccc(Nc2ccc([N+](=O)[O-])c3nonc23)cc1`, the IC50 in the data set on HL-60 [1] was found to be 9.3 µM; in the data set with Daudi, 3.1 µM.
Turning to `O=C(O)c1cc([N+](=O)[O-])ccc1Nc1ccccc1-c1ccccc1`, at c-Myc/Max (Homo sapiens) [2], the inhibition was 49%.
On to `COC(=O)c1ccc(Nc2ccc([N+](=O)[O-])c3nonc23)cc1`, for which the IC50 with HL-60 [1] came out at 20 µM; in the data set with Daudi, 7.8 µM.
On to `O=C(OCC(F)(F)F)c1ccc(Nc2ccc([N+](=O)[O-])c3nonc23)cc1`, for which the IC50 with HL-60 [1] was 8.5 µM; in the data set with Daudi, 1.9 µM. Moreover, at c-Myc/Max (Homo sapiens) [3], the inhibition entry is “Active”.
In the case of `O=C(Oc1ccccc1)c1ccc(Nc2ccc([N+](=O)[O-])c3nonc23)cc1`, the IC50 in the data set on Daudi was 2.5 to 3.1 µM; on c-Myc/Max, 39.7 µM. Further, on c-Myc/Max (Homo sapiens) [3], the inhibition result was “Active”.
For `O=[N+]([O-])c1ccc(Nc2ccccc2Br)c2nonc12`, the inhibition on c-Myc/Max (Homo sapiens) [2] stood at 39%.
With `O=C(OCc1ccccc1)c1ccc(Nc2ccc([N+](=O)[O-])c3nonc23)cc1`, the half-inhibitory concentration (IC50) with HL-60 [1] is 7.2 µM; with Daudi it was 3.5 µM.
The like results for `CCOC(=O)c1ccc(Nc2ccc([N+](=O)[O-])c3nonc23)cc1` were, in that order, over 25 µM and 7.4 µM.
On to `COC(=O)c1ccc(Nc2ccc([N+](=O)[O-])c3nonc23)c(-c2ccc(C)cc2)c1`, for which the Activity result was “Dose-dependent effect” with HL-60 [4]; 44% with HL-60 [5]; 12% in the data set with HL-60 [6]; 44% with HL-60 [7]; 59.5% in the data set on HL-60 [8]; 17% with HL-60 [9]. Moreover, the Activity with HL-60 [10] is on record as 23%. In addition, in [11], the inhibition entry was “Active”.
As to `O=[N+]([O-])c1ccc(Nc2ccccc2-c2ccccc2)c2nonc12`, the inhibition at c-Myc/Max (Homo sapiens) [2] lay within 38 to 39%. The molecule also had a half-life in data set [12] of 37 min.
Regarding `O=C(O)c1ccc(Nc2ccc([N+](=O)[O-])c3nonc23)cc1`, at c-Myc/Max (Homo sapiens) [2], the inhibition was 93 to 94%.
Consider `O=[N+]([O-])c1ccc(Nc2cccc(-c3ccccc3)c2)c2nonc12`, for which the inhibition on c-Myc/Max (Homo sapiens) [2] turned out to be 20%.
Turning to `CC(=O)OCOC(=O)c1ccc(Nc2ccc([N+](=O)[O-])c3nonc23)cc1`, the IC50 came out at 31.9 µM in the data set with HL-60 [1] and 30.7 µM with Daudi.

Usually IC50 stands for the concentration that inhibits the measured activity by half. One may read the inhibition as the share of the control response that was lost under treatment. As usually defined, the half-life is how long it takes for the measured level to halve. Read a high half-life as slow decline.
